Test results: patent US20240360194A1, “New Peptides as Potent and Selective GIP Receptor Agonists” (Sanofi, priority 2021, published 2024)
Read-outs that look alike come from different tables or passages of the source. Numbered stars: 1 amine (or outer) side, 2 acyl side, 3 side chain; on linkers, the order of the positions; unused ones are H or OH. Square brackets hold non-standard residues; d marks the D form. Side chains are listed from the residue outwards. Peptide text beside a SMILES is read from it. * marks the point of attachment. C18 diacid = O=C(O)CCCCCCCCCCCCCCCCC(=O)*; γGlu = O=C(O)[C@H](CCC(=O)[*:2])N[*:1]; AEEA = NCCOCCOCC(=O)O; Aib = CC(C)(N)C(=O)O

How the values were obtained:
[1] = molecular target: T1, human GLP-1 receptor (hGLP-1R) (Homo sapiens, UniProt P43220); test: In vitro cellular cAMP assay for GLP-1 receptor efficacy (HEK-293 cell line over-expressing receptor); type: cell-based; settings: HEK-293, 0.1% BSA
Target sequence in this assay (P43220 24-463): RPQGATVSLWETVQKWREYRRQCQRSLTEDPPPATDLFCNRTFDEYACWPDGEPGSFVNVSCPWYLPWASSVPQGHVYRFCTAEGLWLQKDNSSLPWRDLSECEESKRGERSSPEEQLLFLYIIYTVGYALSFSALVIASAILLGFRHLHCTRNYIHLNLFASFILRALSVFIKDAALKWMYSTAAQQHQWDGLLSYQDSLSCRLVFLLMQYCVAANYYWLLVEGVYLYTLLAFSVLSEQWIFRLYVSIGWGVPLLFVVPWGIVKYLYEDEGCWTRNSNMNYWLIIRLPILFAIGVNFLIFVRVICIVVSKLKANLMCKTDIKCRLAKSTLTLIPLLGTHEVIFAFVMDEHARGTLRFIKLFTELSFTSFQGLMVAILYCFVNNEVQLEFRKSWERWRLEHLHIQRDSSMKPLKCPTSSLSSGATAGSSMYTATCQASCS

[2] = Solubility assessment (UHPLC-UV of supernatant, target 10 mg/ml); type: physicochemical; settings: read-out: Soluble amount
Outline: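 Peptides at 10 mg/ml (purity-corrected) in 100 mM phosphate pH 7.4, optionally with 2.7 mg/ml m-cresol; gentle agitation 1 h, then 5° C. overnight (24 h). Supernatant after 15 min centrifugation at 2500 RCF quantified by UHPLC-UV, with sequence-based extinction coefficients.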

[3] = Chemical stability assessment (UHPLC-UV purity loss on storage in solution); type: physicochemical; settings: Chemical stability buffer system A: 20 mM phosphate buffer pH 7.4; ~300 μM
Description: Purity of a peptide batch was determined through UHPLC/MS prior to chemical stability measurement. The target concentration was 300 μM pure compound. Solutions from solid samples were prepared in the following buffer systems with a concentration of ˜300 μM compound based on the previously determined % purity: • Chemical stability buffer system A) 20 mM phosphate buffer pH 7.4, • Chemical stability buffer system B) 8 mM phosphate buffer pH 7.4, 14 mg/ml propylene glycol, 5.5 mg/ml phenol • Chemical stability buffer system C) 100 mM phosphate buffer pH 7.4, 2.7 mg/ml m-cresol
Prepared solutions were filtered through […] pore size and filled into sterilized glass containers under laminar flow conditions.
Glass containers were stored for 28 days at 5 and 40° C. After this time, the samples were centrifuged for 15 min at 2500 RCF. Then 1.5 μl of the undiluted supernatant were analysed with UHPLC-UV.
The chemical stability was rated through the relative loss of purity calculated by the equation: […]
The purity is calculated as
The analytical methods used were Analytical UHPLC Method B or C.
Peptide samples were prepared in Chemical stability buffer system A or B and stability was assessed as described in Methods.

[4] = molecular target: T1, human GLP-1 receptor (hGLP-1R); test: Binding assay, displacement of [125I]GLP-1 from HEK-293 membranes over-expressing GLP-1R (SPA); settings: [125I]GLP-1 displacement
Outline: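 Membranes from HEK-293 cells over-expressing human GIPR or GLP-1R, isolated by homogenising, sonicating and ultracentrifuging at 100000×g into HEPES/EDTA/NaCl buffer with protease inhibitors, were used for binding.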

[5] = molecular target: T2, human GIP receptor (hGIPR) (Homo sapiens, UniProt P48546); test: In vitro cellular cAMP assay for GIP receptor efficacy (HEK-293 cell line over-expressing receptor); type: cell-based; settings: EC50 hGIPR 0.1% BSA, HEK-293, 0.1% BSA
T2 sequence (P48546 22-466): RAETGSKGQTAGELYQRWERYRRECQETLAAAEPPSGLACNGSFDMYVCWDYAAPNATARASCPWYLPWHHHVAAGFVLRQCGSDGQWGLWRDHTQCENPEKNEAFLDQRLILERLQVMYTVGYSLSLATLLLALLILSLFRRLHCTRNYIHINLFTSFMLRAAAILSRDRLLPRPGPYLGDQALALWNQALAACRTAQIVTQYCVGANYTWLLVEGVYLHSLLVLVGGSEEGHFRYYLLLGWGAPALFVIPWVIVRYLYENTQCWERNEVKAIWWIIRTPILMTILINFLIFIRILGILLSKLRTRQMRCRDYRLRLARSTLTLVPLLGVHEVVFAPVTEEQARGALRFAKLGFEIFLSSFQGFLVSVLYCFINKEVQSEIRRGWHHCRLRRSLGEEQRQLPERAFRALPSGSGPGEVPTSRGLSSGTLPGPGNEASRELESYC

[6] = Pharmacokinetic evaluation in rats; type: in vivo; settings: male, SD, rat, in vivo
Description: Compounds were administered in a suitable buffer system, e.g. PBS buffer solution at pH7.4 or DPBS solution at concentrations of 0.05, 0.1, 0.5 or 1 mg/ml depending on dose, species and administration volume. Male SD rats were dosed 0.25 mg/kg, 0.5 mg/kg or 1 mg/kg intravenously (i.v.) or subcutaneously (s.c.). Blood samples were collected after 0.08, 0.25, 0.5, 1, 2, 4, 8, 24, 32, and 48 h post i.v. application and 0.25, 0.5, 1, 2, 4, 8, 24, 32, and 48 h post s.c. application, respectively. Plasma samples were analysed after protein precipitation via liquid chromatography mass spectrometry (LC/MS). PK parameters and half-life were calculated using Phoenix-WinNonlin 8.1 using a non-compartmental model and linear trapezoidal interpolation calculation. Pharmacokinetic profiles were determined as described in Methods.

solubility at 24 h ([2]; 100 mM phosphate buffer pH 7.4 (solubility buffer system A), pH 7.4, Solubility buffer system A: 100 mM phosphate buffer pH 7.4) [mg/mL]	solubility at 24 h ([2]; pH 7.4, Solubility buffer system C: 100 mM phosphate buffer pH 7.4, 2.7 mg/ml m-cresol) [mg/mL]	EC50 [5] [nM]	Compound	EC50 [1] [nM]	Relative purity loss over 28 days at 40° C. [3] [%]	IC50 [4] [nM]	AUC(0-t) ([6]; iv, 0.25 mg/kg) [µg·h/mL]	Cmax ([6]; iv, 0.25 mg/kg) [ng/mL]	clearance ([6]; iv, 0.25 mg/kg) [mL/h/kg]	half-life ([6]; iv, 0.25 mg/kg) [h]	AUC(0-t) ([6]; sc, 0.5 mg/kg) [µg·h/mL]	Cmax ([6]; sc, 0.5 mg/kg) [ng/mL]	bioavailability ([6]; sc, 0.5 mg/kg) [%]	half-life ([6]; sc, 0.5 mg/kg) [h]
> 30	> 8.7	0.0208	CC[C@H](C)[C@H](NC(=O)[C@H](Cc1ccccc1)NC(=O)[C@H](CCC(=O)O)NC(=O)[C@H](CCC(=O)O)NC(=O)[C@H](CCC(N)=O)NC(=O)[C@H](Cc1c[nH]cn1)NC(=O)[C@@H](NC(=O)[C@H](CCCNC(=N)N)NC(=O)[C@H](CC(=O)O)NC(=O)[C@H](CCCCNC(=O)COCCOCCNC(=O)COCCOCCNC(=O)CC[C@H](NC(=O)CCCCCCCCCCCCCCCCC(=O)O)C(=O)O)NC(=O)C(C)(C)NC(=O)[C@@H](NC(=O)[C@H](CO)NC(=O)[C@H](CC(C)C)NC(=O)[C@H](CC(=O)O)NC(=O)[C@H](CO)NC(=O)[C@@H](NC(=O)[C@H](Cc1ccccc1)NC(=O)[C@@H](NC(=O)CNC(=O)[C@H](CCC(=O)O)NC(=O)C(C)(C)NC(=O)[C@@H](N)Cc1ccc(O)cc1)[C@@H](C)O)[C@@H](C)CC)[C@@H](C)CC)[C@@H](C)CC)C(=O)N[C@@H](CCC(=O)O)C(=O)N[C@@H](Cc1c[nH]c2ccccc12)C(=O)N[C@@H](CC(C)C)C(=O)N[C@@H](CC(C)C)C(=O)N[C@@H](C)C(=O)N[C@@H](CCC(N)=O)C(=O)N[C@@H](CCCNC(=N)N)C(=O)NCC(N)=O [SEQ ID NO: 4, H2N-Y-Aib-E-G-T-F-I-S-D-L-S-I-Aib-K[{AEEA}2-gGlu-C18OH]-D-R-I-H-Q-E-E-F-I-E-W-L-L-A-Q-R-G-NH2]	> 1	5.1	308	–	–	–	–	–	–	–	–
–	–	–	CC[C@H](C)[C@H](NC(=O)[C@H](CCC(=O)O)NC(=O)[C@H](CCC(=O)O)NC(=O)[C@H](CCCCNC(=O)COCCOCCNC(=O)COCCOCCNC(=O)CC[C@H](NC(=O)CCCCCCCCCCCCCCCCC(=O)O)C(=O)O)NC(=O)C(C)(C)NC(=O)[C@@H](NC(=O)[C@H](CO)NC(=O)[C@H](CC(C)C)NC(=O)[C@H](CC(=O)O)NC(=O)[C@H](CO)NC(=O)[C@@H](NC(=O)[C@H](Cc1ccccc1)NC(=O)[C@@H](NC(=O)CNC(=O)[C@H](CCC(=O)O)NC(=O)C(C)(C)NC(=O)[C@@H](N)Cc1ccc(O)cc1)[C@@H](C)O)[C@@H](C)CC)[C@@H](C)CC)C(=O)N[C@@H](Cc1c[nH]cn1)C(=O)N[C@@H](CCC(N)=O)C(=O)NC(C)(C)C(=O)N[C@@H](CCC(=O)O)C(=O)N[C@@H](Cc1ccccc1)C(=O)N[C@H](C(=O)N[C@@H](CCC(=O)O)C(=O)N[C@@H](Cc1c[nH]c2ccccc12)C(=O)N[C@@H](CC(C)C)C(=O)N[C@@H](CC(C)C)C(=O)N[C@@H](C)C(=O)N[C@@H](CCC(N)=O)C(=O)NCC(=O)N1CCC[C@H]1C(=O)N[C@@H](CO)C(=O)N[C@@H](CO)C(=O)NCC(=O)N[C@@H](C)C(=O)N1CCC[C@H]1C(=O)N1CCC[C@H]1C(=O)N1CCC[C@H]1C(=O)N[C@@H](CO)C(N)=O)[C@@H](C)CC [SEQ ID NO: 19, H2N-Y-Aib-E-G-T-F-I-S-D-L-S-I-Aib-K[{AEEA}2-gGlu-C18OH]-E-E-I-H-Q-Aib-E-F-I-E-W-L-L-A-Q-G-P-S-S-G-A-P-P-P-S-NH2] (H-Y[Aib]EGTFISDLSI[Aib]K([AEEA-AEEA-γGlu-C18 diacid])EEIHQ[Aib]EFIEWLLAQGPSSGAPPPS-NH2)	> 10	4.3	183	194	12800	1.09	19.6	189	5590	54	20.1
